Source: PMC10287695, “Non-covalent inhibitors of thioredoxin glutathione reductase with schistosomicidal activity in vivo” (Nature Communications, 2023)
“And” between values parts separate entries of the source, which are not always exact repeats. Equal entries are not always repeated. Marks after values point to notes of the source that are not given here.

Tests used:
TGR [1] = molecular target: T1, TGR (Schistosoma mansoni, UniProt Q962Y6); assay: Reversibility by jump dilution; type: biochemical
T1 construct: made in house
T1 sequence (Q962Y6 1-598): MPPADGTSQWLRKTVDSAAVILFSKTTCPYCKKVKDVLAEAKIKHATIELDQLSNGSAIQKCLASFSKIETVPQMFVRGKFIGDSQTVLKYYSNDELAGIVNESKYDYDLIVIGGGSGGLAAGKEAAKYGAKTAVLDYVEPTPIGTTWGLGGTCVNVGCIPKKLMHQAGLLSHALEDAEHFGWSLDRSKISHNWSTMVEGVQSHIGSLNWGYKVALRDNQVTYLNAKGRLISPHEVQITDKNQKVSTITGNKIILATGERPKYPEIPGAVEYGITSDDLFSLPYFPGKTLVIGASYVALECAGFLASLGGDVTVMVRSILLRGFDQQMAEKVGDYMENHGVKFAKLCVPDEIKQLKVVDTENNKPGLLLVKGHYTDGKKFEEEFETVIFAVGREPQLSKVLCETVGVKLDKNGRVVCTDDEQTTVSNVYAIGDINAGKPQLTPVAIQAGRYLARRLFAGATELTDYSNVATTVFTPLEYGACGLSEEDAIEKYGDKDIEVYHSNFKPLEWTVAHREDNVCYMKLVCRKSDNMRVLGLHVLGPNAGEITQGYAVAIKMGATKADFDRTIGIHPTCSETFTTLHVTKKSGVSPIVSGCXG
Protocol: A reaction of 370 nM TGR, 100 µM NADPH, and 250 µM inhibitor was incubated for 15 min at room temperature. A 100x dilution of the reaction was made and the activity was determined immediately and after 60 min.

TGR [2] = molecular target: T1, TGR; assay: Time dependence of inhibition; type: biochemical; settings: panel c, replicates
Protocol: TGR was incubated at room temperature (up to 6 h) and at 4 °C for 6 to 24 h with 50 µM inhibitor and 100 µM NADPH for the indicated times. Then DTNB (3 mM) and NADPH (100 µM) were added, and the reaction was monitored at A412 for 5 min. The assay was done in triplicate.

[3] = system: S. mansoni juvenile worms (21 days); assay: Schistosomicidal activity ex vivo, juvenile worms (21 days); type: cell-based; settings: for LD50 ex vivo S. mansoni 21 days: juvenile worms, 48 h exposure
Protocol: Three-week old, female Swiss-Webster mice obtained from the Charles River were housed in the Comparative Research Center of Rush University Medical Center. Mice were infected by percutaneous tail exposure to about 200 S. mansoni or 50 S. japonicum cercaria for adult worms and about 1000 cercaria for juvenile S. mansoni worms through natural transdermal penetration of the cercariae for 1 h[81].
DMSO formulated compounds were diluted with phenol red free M199 medium or RPMI medium for NTS or juvenile and adult worms, respectively, at <1% DMSO final concentrations. NTS, juvenile and adult worms from overnight cultures were tested against compounds in triplicate. Controls were treated with DMSO alone or 5 µM AF as a positive control in appropriate medium. […] Schistosome viabilities in the presence of the compounds were assessed using this formula: % Viability = Averages of Test / Averages of DMSO Control x 100.

[4] = Cytotoxicity in mammalian cells (Cell Titer Glo); type: cell-based; settings: African green monkey, Vero cells
Protocol: Following overnight incubation, formulated DMSO-compound stock solutions were diluted with DMEM at <1% DMSO final concentrations. […] Vero cells treated similarly with different concentrations of PZQ, MZM and AF (Cayman Chemicals) were used as positive controls.

[5] = D0: diluted 1:100, activity determined immediately, list for plotting
[6] = D60: diluted 1:100, activity determined after 60 min, list for plotting
[7] = before dilution (-15), list for plotting
[8] = 5 µM, relative to untreated control
[9] = 10 µM, relative to untreated control
[10] = 25 µM, relative to untreated control
[11] = 50 µM, relative to untreated control

C#CCN(Cc1nc(-c2ccccc2)oc1C)[C@@H]1C[C@@H]2C[C@H]([C@H]1C)C2(C)C [Compound 6]
% Activity (ID list), D0 (TGR [1]; [5]): 75.6% and 75.7% and 80.1%
% Inhibition (ID list), D0 (TGR [1]; [5]): 24.4% and 24.3% and 19.9%
% Activity (ID list), D60 (TGR [1]; [6]): 78.0% and 78.9% and 78.3%
% Inhibition (ID list), D60 (TGR [1]; [6]): 22.0% and 21.1% and 21.7%
Inhibitor (rate), 0 min (TGR [1]; [0, D0]: 15 min preincubation inhibitor + TGR + NADPH, diluted 1:100, then activity determined immediately, raw rate): 0.03741 and 0.03869 and 0.04167
% Activity, 0 min (TGR [1]; [0, D0]: 15 min preincubation inhibitor + TGR + NADPH, diluted 1:100, then activity determined immediately, relative to DMSO): 75.6216% and 75.6995% and 80.0576%
Inhibitor (rate), 60 min (TGR [1]; [60, D60]: 15 min preincubation inhibitor + TGR + NADPH, diluted 1:100, then activity determined after 60 min, raw rate): 0.03652 and 0.03852 and 0.03804
% Activity, 60 min (TGR [1]; [60, D60]: 15 min preincubation inhibitor + TGR + NADPH, diluted 1:100, then activity determined after 60 min, relative to DMSO): 78.0175% and 78.8698% and 78.3361%
Inhibitor (rate), -15 (TGR [1]; [-15]: 15 min preincubation inhibitor + TGR + NADPH, then activity determined, raw rate, replicates): 0.0007205 and 0.001179 and -0.0005968
% Activity, -15 (TGR [1]; [-15]: 15 min preincubation inhibitor + TGR + NADPH, then activity determined, relative to DMSO, replicates): 1.808% and 2.913% and -1.39%
% Activity (ID list) (TGR [1]; [7]): 2.9% and -1.4%
% Inhibition (ID list) (TGR [1]; [7]): 98.2% and 97.1% and 101.4%
TGR activity relative to dmso, time 0 (TGR [2]; time 0 (time unit not given)): 3.265 and 0.9012
TGR activity relative to dmso, time 5 (TGR [2]; time 5 (time unit not given)): 0.7526 and -0.07048 and -0.5247
TGR activity relative to dmso, time 10 (TGR [2]; time 10 (time unit not given)): 0.5708 and -0.4368 and -0.3757
TGR activity relative to dmso, time 15 (TGR [2]; time 15 (time unit not given)): 0.7215 and 0.1963 and -0.1983
TGR activity relative to dmso, time 30 (TGR [2]; time 30 (time unit not given)): 2.551 and 1.111 and 1.493
viability at 5 µM ([3]; Schistosoma mansoni, 23 day S. mansoni worms, 48 HR, Conc. 5 µM): 73.2%
viability at 15 µM ([3]; Schistosoma mansoni, 23 day S. mansoni worms, 48 HR, Conc. 15 µM): 60.7%
viability at 30 µM ([3]; Schistosoma mansoni, 23 day S. mansoni worms, 48 HR, Conc. 30 µM): 56.8%
LD50 ex vivo S. mansoni 21 days [3]: >30^a µM
viability at 24 h, 1 µM ([4]; Conc. 1 µM): 99.1%
viability at 24 h, 5 µM ([4]; Conc. 5 µM): 99%
viability at 24 h, 10 µM ([4]; Conc. 10 µM): 91.1%
viability at 24 h, 25 µM ([4]; Conc. 25 µM): 86.8%
viability at 24 h, 50 µM ([4]; Conc. 50 µM): 79.9%
viability at 24 h, 100 µM ([4]; Conc. 100 µM): 63.9%

C[C@@H]1N=C(c2ccccc2Cl)c2cc([N+](=O)[O-])ccc2NC1=O [MZM, meclonazepam, reference compound]
LD50 ex vivo S. mansoni 21 days [3]: >50^a µM
viability at 24 h, 5 µM [4, 8]: 99.8%
viability at 24 h, 10 µM [4, 9]: 98.1%
viability at 24 h, 25 µM [4, 10]: 92.9%
viability at 24 h, 35 µM ([4]; relative to untreated control): 90.8%
viability at 24 h, 50 µM [4, 11]: 87%

O=C(C1CCCCC1)N1CC(=O)N2CCc3ccccc3C2C1 (stereo not drawn) [PZQ, praziquantel]
LD50 ex vivo S. mansoni 21 days [3]: >50^a µM
viability at 24 h, 5 µM [4, 8]: 97.1%
viability at 24 h, 10 µM [4, 9]: 98.3%
viability at 24 h, 25 µM [4, 10]: 92.3%
viability at 24 h, 35 µM ([4]; relative to untreated control): 89.1%
viability at 24 h, 50 µM [4, 11]: 88.9%
